Measured values from PMC11468294, “Peptide Amphiphiles as Biodegradable Adjuvants for Efficient Retroviral Gene Delivery” (Advanced Healthcare Materials, 2023).
“Also recorded” adds a separate entry of the source. Where a SMILES comes first, the peptide text is derived from it. Where no end group is shown, it is not given here. The star is where a group is joined. Palmitoyl = CCCCCCCCCCCCCCCC(=O)*; Nonanoyl = CCCCCCCCC(=O)*

Experiments:
HeLa cells = format: in vitro ADME; details: HeLa cells; for degradability by cells (in words): 2 µg peptide added to 20,000 cells, d0 (30 min) vs d3, degradable if number and size of aggregates are reduced after 3 days; for degradability (percentual degradation by aggregate number): 2 µg peptide (10 µg mL-1) added to 20,000 cells, 37°C, aggregates > 10 µm2 in 1008 µm × 1008 µm at d3 (72 h) vs d0 (30 min), Proteostat, confocal, three technical replicates
Procedure: Confocal laser scanning microscopy and degradation study with PA library and HeLa cells: Confocal laser scanning microscopy studies were performed for the visualization of the cell‐PA interaction. HeLa cells were seeded one day prior to conducting the assay (20000/well) in an 8‐well IBIDI slide. 2 µL of the preformed peptide fibrils (1 mg mL^−1) were diluted with 2 µL Proteostat (Enzo Life Science, 1 µL stock in 99 µL PBS) and incubated for 10 min and further diluted with medium to receive a final peptide concentration of 10 µg mL^−1. The nucleus of the HeLa cells was stained with Hoechst 33 342 (NucBlue, Thermo Fisher Scientific). The peptide solution mixture was transferred to the HeLa cells and incubated for 30 min at 37°C before washing three times with PBS. The interaction of fibril clusters with cells was monitored after 30 min incubation time on a Stellaris 8 confocal laser scanning microscope (Leica) equipped with a 20x air objective and laser excitation wavelengths of 405 nm (Hoechst), and 561 nm (Proteostat). For the evaluation of aggregate degradation, the samples were further incubated at 37°C for 3 d and analyzed without any additional washing step. The evaluation of aggregate size and number was conducted by analyzing Proteostat stained aggregates via the 3D objects counter function of ImageJ 1.53f51 for 3 individual measurements (area 1008 µm × 1008 µm). […] The number of aggregates were determined by counting aggregates larger than the threshold 10 µm^2 in an area of 1008 µm × 1008 µm and repeated in three technical triplicates.
(§1) 7 Effects of PA modifications on properties and activity
(§2) To investigate the effects of modification in the PA sequence, we created various peptide amphiphiles derived from PA1 by varying the (I) hydrophobic moiety, (II) the linkage chemistry and (III) the peptide sequence (Figure S12, SI chapter 7.1 – 7.3). The color code for sequence representation is yellow for the hydrophobic moiety, blue for cationic amino acids, red for non-polar amino acids, purple for polar uncharged amino acids, and green for anionic amino acids. To be concise, only the summarized information will be discussed, all original data for the peptides are summarized in the (Figure S26 - […]
(§3) Figure S12 Summarized overview of peptide amphiphile library in which systematic variations the original sequence […]
(§4) chemistry and (III) the peptide sequence on infectivity enhancement and degradability (see SI chapter 7.1 – 7.3).
(§5) In the following section a compound is considered infectivity enhancing if n-fold infectivity at 1.3 µM is larger than 2. A compound is considered to form µm-sized aggregates if visible particles were observed in widefield microscopy (brightfield or ThT-staining filter, objective 10x) or confocal […]
(§6) than 1000 kcps in Zeta-Potential measurements.
(§7) For the degradability only the PAs which could be stained with Proteostat (Figure S26) and were visible in microscopy (Figure S15, Figure S18, Figure S21, and Figure S22) were studied in detail. To determine […]
whether a PA is degraded or not, Proteostat stained PAs which are added to Hela cells (2 µg peptide added to 20.000 cells) and studied via confocal laser scanning microscopy. Microscopy is conducted at day 0 (d0, after 30 min of incubation) and at day 3 (d3, after 72 h of incubation). The number of aggregates >10 µm2 is counted via 3D object counter in ImageJ in an area of 1008 µm × 1008 µm.
A PA is considered as degradable if the number and the size of aggregates are reduced after 3 days.
The efficiency is determined by the percentual degradation (aggregate number at d3 / aggregate number at d0). Three technical replicates were evaluated for each sample. A large deviation in number and size of aggregates represents a nonhomogeneous distribution and polymorphism of aggregates.

[1] = Microscopic aggregation (fluorescence / confocal microscopy, derived count rate); format: physicochemical; details: fibrils preformed at 1 mg mL-1 in PBS; ThT or Proteostat stain, widefield or confocal microscopy; derived count rate > 1000 kcps as criterion
Procedure: Transmission electron microscopy (TEM) measurements, Thioflavin (ThT), zeta‐potential measurements for fibril characterization, ATR‐IR spectra acquisition and the calculation of β−sheet were prepared and conducted analogous to a previous report.^[ [20], [86] ^] […] Fibrils were defined as distinct, if no visible structures could be identified in fluorescence and brightfield microscopy. […] The derived count rate of the zeta‐potential measurement was used as information on the light scattering intensity and turbidity of the sample as a further indicator for microscopic aggregation.^[ [90] ^]
Fluorescence microscopy: 1 µL Fibrils (1 mg mL^−1) were stained with 9 µL, 50 µM ThT. 10 µL of the stained fibrils (0.1 mg mL^−1) were placed on a microscopy glass. Fluorescence microscopy measurements were performed on a Leica DMi8 microscope with 10x air objective and equipped with a Leica MC170 HD camera with a filter setting λem = 527/30 nm upon excitation at λex = 480/40 nm) and processed with the Leica LASX software.
as §1, §2, §3, §4, §5, §6, §7
whether a PA is degraded or not, Proteostat stained PAs which are added to Hela cells (2 µg peptide added to 20.000 cells) and studied via confocal laser scanning microscopy. […]
In the following, we will distinguish between three aggregation types for fibrillar structures: Fibrils which were not aggregating (below resolution limit of the microscope, approx. 650 nm), moderately aggregating (< 50 µm2) and aggregating to large particles (> 50 µm 2).
7.1 Effects of hydrophobic moiety exchange on properties and activity
To investigate the effects of varying hydrophobic moieties on assembly, aggregation and activity , we

[2] = test system: HIV-1 infection of TZM-bl cells; experiment: HIV-1 infection assay (β-galactosidase luminescence reporter); format: cell-based; details: for infectivity enhancement of HIV-1 (in words): infectivity enhancing if n-fold at 1.3 µM larger than 2
Procedure: HIV‐1 Infection Assay: The effect of peptide fibrils on HIV‐1 infection was studied via a luminescence assay for β‐galactosidase, which was reported by TZM‐bl cells upon infection. 10000 TZM‐bl cells were seeded in 180 µl supplemented DMEM one day prior infection. The cells were inoculated with 20 µl PNF solution 1:1 (v/v) mixed with virus (1:500 dilution) after an incubation time of 10 min. The HIV‐1 infection assay was conducted in three technical replicates and repeated in three independent experiments unless stated otherwise. The assay was conducted as described before.^[ [20] ^]

Compound | degradability by cells (in words) (HeLa cells) | formation of µm-sized aggregates (in words) [1] | also measured
C16-AQAKAK [library peptide amphiphile, palmitic acid at the N-terminus] | degraded incompletely | very large aggregates | –
CCCCCCCCCCCCCCCC(=O)N[C@@H](CCCCN)C(=O)N[C@H](C(=O)N[C@H](C(=O)N[C@@H](CO)C(=O)N[C@@H](Cc1ccccc1)C(=O)N[C@@H](CCCCN)C(N)=O)[C@@H](C)CC)[C@@H](C)CC [C16-KIISFK-NH2] (Palmitoyl-KIISFK-NH2) | degraded incompletely | very large aggregates | –
C16‐thioester‐CVVVAAAKKK‐NH2 [PA1 variant with thioester linker] | – | small, well distributed aggregates | degradability (percentual degradation by aggregate number) (HeLa cells): 87%
CCCCCCCCCCCCCCCC(=O)N[C@@H](CC(N)=O)C(=O)N[C@@H](Cc1ccccc1)C(=O)N[C@@H](Cc1ccc(O)cc1)C(=O)N[C@@H](CC(C)C)C(=O)N[C@@H](CCC(N)=O)C(=O)N[C@H](C(=O)N[C@@H](CC(N)=O)C(=O)N[C@@H](CCCCN)C(=O)N[C@H](C(=O)N[C@@H](CC(N)=O)C(=O)N[C@@H](CCCCN)C(N)=O)[C@@H](C)CC)C(C)C (Palmitoyl-NFYLQVNKINK-NH2) | degraded incompletely | very large aggregates | –
CCCCCCCCCCCCCCCC(=O)N[C@H](C(=O)N[C@H](C(=O)N[C@@H](C)C(=O)N[C@@H](C)C(=O)N[C@@H](Cc1c[nH]cn1)C(=O)N[C@@H](Cc1c[nH]cn1)C(=O)N[C@@H](Cc1c[nH]cn1)C(N)=O)C(C)C)C(C)C [C16-VVAAHHH-NH2] (Palmitoyl-VVAAHHH-NH2) | increase in size, decrease in number | very large aggregates | –
NFYLQVNKINK-NH2 | no good degradability | – | –
CCCCCCCCCCCCCCCC(=O)N[C@@H](CCCCN)C(=O)N[C@@H](Cc1ccc(O)cc1)C(=O)N[C@H](C(=O)N[C@@H](Cc1c[nH]cn1)C(=O)N[C@@H](CCC(N)=O)C(=O)N[C@@H](CC(N)=O)C(=O)N[C@@H](Cc1ccc(O)cc1)C(=O)N[C@H](C(=O)N[C@@H](CCCCN)C(=O)N[C@@H](C)C(=O)N[C@@H](CC(C)C)C(=O)N[C@@H](C)C(=O)NCC(=O)N[C@@H](CCCCN)C(=O)N[C@@H](CC(C)C)C(=O)N[C@H](C(N)=O)C(C)C)[C@@H](C)O)[C@@H](C)CC (Palmitoyl-KYIHQNYTKALAGKLV-NH2) | degraded incompletely | very large aggregates | –
CCCCCCCCC(=O)N[C@H](C(=O)N[C@H](C(=O)N[C@H](C(=O)N[C@@H](C)C(=O)N[C@@H](C)C(=O)N[C@@H](C)C(=O)N[C@@H](CCCCN)C(=O)N[C@@H](CCCCN)C(=O)N[C@@H](CCCCN)C(N)=O)C(C)C)C(C)C)C(C)C [C9] (Nonanoyl-VVVAAAKKK-NH2) | reduced in number of aggregates, but increases in size | – | –
CCCCCCCCCCCCCCCC(=O)NCC(=O)N[C@@H](CCCCN)C(=O)N[C@H](C(=O)NCC(=O)N[C@@H](CO)C(=O)N[C@@H](CCCCN)C(N)=O)C(C)C [C16-GKVGSK-NH2] (Palmitoyl-GKVGSK-NH2) | – | cannot form µm‐sized aggregates | infectivity enhancement of HIV-1 (in words) [2]: Inactive
CCCCCCCCCCCCCCCC(=O)N[C@@H](C)C(=O)N[C@@H](CC(C)C)C(=O)N[C@@H](C)C(=O)N[C@@H](C)C(=O)NCC(=O)N[C@@H](CCCCN)C(=O)N[C@@H](CCCCN)C(N)=O [C16-ALAAGKK-NH2] (Palmitoyl-ALAAGKK-NH2) | – | – | degradability (percentual degradation by aggregate number) (HeLa cells): 87%
CCCCCCCCCCCCCCCC(=O)OC[C@H](N)C(=O)N[C@H](C(=O)N[C@H](C(=O)N[C@H](C(=O)N[C@@H](C)C(=O)N[C@@H](C)C(=O)N[C@@H](C)C(=O)N[C@@H](CCCCN)C(=O)N[C@@H](CCCCN)C(=O)N[C@@H](CCCCN)C(N)=O)C(C)C)C(C)C)C(C)C (H-S(Palmitoyl)VVVAAAKKK-NH2) | degraded well | – | –
CCCCCCCCCCCCCCCC(=O)NCC(=O)NCC(=O)NCC(=O)N[C@@H](CO)C(=O)N[C@@H](CO)C(=O)N[C@@H](CCCCN)C(=O)N[C@@H](CCCCN)C(=O)N[C@@H](CCCCN)C(N)=O (Palmitoyl-GGGSSKKK-NH2) | – | not forming µm-sized aggregates and forming too few/less aggregates, respectively; also recorded: cannot form µm‐sized aggregates | infectivity enhancement of HIV-1 (in words) [2]: Inactive
C16-disulfide-CVVVAAAKKK-NH2 [PA1 variant with disulfide linker] | – | not forming visible aggregates | reduction of infectivity enhancement relative to the original amide-linked PA ([2]; n-fold at 1.3 µM): approx. 60%
CCCCCCCCCCCCCCCC(=O)N[C@@H](CC(C)C)C(=O)N[C@@H](CC(N)=O)C(=O)NCC(=O)NCC(=O)N[C@H](C(=O)N[C@@H](CCCCN)C(=O)N[C@@H](CCCCN)C(N)=O)C(C)C [C16-LNGGVKK-NH2] (Palmitoyl-LNGGVKK-NH2) | – | – | degradability (percentual degradation by aggregate number) (HeLa cells): 48%
CCCCCCCCCCCCCCCC(=O)N[C@@H](C)C(=O)N[C@@H](CCCCN)C(=O)N[C@@H](C)C(=O)N[C@H](C(=O)NCC(=O)N[C@@H](CCCCN)C(N)=O)C(C)C [C16-AKAVGK-NH2] (Palmitoyl-AKAVGK-NH2) | – | – | degradability (percentual degradation by aggregate number) (HeLa cells): 89%
CCCCCCCCCCCCCCCC(=O)N[C@@H](C)C(=O)N[C@H](C(=O)N[C@@H](C)C(=O)N[C@@H](CCCCN)C(=O)N[C@@H](CCCCN)C(=O)N[C@@H](CCCCN)C(N)=O)C(C)C [C16-AVAKKK-NH2] (Palmitoyl-AVAKKK-NH2) | – | not forming µm-sized aggregates and forming too few/less aggregates, respectively | –
CCCCCCCCCCCCCCCC(=O)N[C@@H](C)C(=O)N[C@@H](C)C(=O)N[C@H](C(=O)N[C@H](C(=O)N[C@@H](Cc1c[nH]cn1)C(=O)N[C@@H](Cc1c[nH]cn1)C(=O)N[C@@H](CCCCN)C(N)=O)C(C)C)C(C)C [C16-AAVVHHK-NH2] (Palmitoyl-AAVVHHK-NH2) | degraded incompletely | very large aggregates | –
